# Earlier results as cited in US4579840A, “Method of blocking immune complex binding to immunoglobulin Fc receptors” (Immunetech Pharmaceuticals, priority 1983, dated 1986).
# Ends that are not written are not given here.
# Columns and labels:
# [1] = system: local cutaneous allergic reaction (Prausnitz-Kustner); conditions: Hamburger 1975; cited from earlier work
# [2] = target: T1, IgE Fc receptor of human basophils (Homo sapiens, UniProt P12319); conditions: Plummer et al. 1983; cited from earlier work
# T1 construct: host or cells: human basophils
# T1 sequence (P12319 26-257): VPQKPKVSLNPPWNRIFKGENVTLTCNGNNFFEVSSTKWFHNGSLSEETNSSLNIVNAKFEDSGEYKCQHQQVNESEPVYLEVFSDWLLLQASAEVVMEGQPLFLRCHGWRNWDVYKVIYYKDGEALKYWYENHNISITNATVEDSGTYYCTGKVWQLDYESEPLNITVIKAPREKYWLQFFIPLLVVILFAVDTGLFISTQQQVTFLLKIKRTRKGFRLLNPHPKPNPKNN
# T1 sequence (Q01362 1-244 partner): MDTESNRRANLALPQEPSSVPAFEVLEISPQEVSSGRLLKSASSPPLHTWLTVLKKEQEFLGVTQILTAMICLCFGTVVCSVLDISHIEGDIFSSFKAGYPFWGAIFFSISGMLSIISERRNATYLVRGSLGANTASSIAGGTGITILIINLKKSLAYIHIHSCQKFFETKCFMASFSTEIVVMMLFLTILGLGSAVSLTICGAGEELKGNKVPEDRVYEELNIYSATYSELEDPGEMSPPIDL
# T1 sequence (P30273 19-86 partner): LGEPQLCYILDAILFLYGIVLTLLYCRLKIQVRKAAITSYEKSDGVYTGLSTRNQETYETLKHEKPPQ
# [3] = system: systemic allergic disease; conditions: after injection by the subcutaneous route; cited from earlier work
# [4] = system: granulocytes, monocytes and macrophages; conditions: in vitro; literature; cited from earlier work
# [5] = system: human and rodent mast cells; conditions: Stanworth et al. 1979; cited from earlier work
# [6] = system: macrophage IgG Fc receptors of mice; conditions: Stanworth 1982; cited from earlier work
# [7] = target: C1 (Homo sapiens, UniProt P02745+P02746+P02747); conditions: Prystowsky et al. 1981, Lukas et al. 1981; cited from earlier work
# [8] = system: human monocyte IgG Fc receptors; conditions: literature (Ciccimarra 1975; Stanworth 1982; Ratcliffe and Stanworth 1982); Tuftsin also 'ourselves'; cited from earlier work
# [9] = system: lymphocytes; conditions: Morgan, Huguli and Weigle 1982; cited from earlier work
# C1, sequence (P02745 23-245): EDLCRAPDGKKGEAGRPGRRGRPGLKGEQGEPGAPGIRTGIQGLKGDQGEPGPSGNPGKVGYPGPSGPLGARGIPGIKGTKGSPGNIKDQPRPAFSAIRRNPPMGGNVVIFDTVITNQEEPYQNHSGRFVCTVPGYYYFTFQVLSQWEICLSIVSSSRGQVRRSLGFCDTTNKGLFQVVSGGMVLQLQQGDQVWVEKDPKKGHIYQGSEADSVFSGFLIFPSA
# C1, sequence (P02746 28-253): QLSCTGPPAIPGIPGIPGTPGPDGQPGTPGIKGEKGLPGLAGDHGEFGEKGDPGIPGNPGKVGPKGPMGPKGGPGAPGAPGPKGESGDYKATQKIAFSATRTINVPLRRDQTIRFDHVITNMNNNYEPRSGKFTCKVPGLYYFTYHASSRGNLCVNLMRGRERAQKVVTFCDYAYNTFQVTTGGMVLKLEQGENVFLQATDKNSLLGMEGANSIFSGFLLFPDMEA
# C1, sequence (P02747 29-245): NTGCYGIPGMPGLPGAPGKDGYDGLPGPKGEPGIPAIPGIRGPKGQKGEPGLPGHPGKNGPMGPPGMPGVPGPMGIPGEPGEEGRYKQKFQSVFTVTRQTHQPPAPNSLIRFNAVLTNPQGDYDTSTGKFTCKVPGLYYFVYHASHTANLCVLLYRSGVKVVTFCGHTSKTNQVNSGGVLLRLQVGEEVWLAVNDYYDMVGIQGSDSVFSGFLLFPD
# C1, sequence (P00736 18-705 partner): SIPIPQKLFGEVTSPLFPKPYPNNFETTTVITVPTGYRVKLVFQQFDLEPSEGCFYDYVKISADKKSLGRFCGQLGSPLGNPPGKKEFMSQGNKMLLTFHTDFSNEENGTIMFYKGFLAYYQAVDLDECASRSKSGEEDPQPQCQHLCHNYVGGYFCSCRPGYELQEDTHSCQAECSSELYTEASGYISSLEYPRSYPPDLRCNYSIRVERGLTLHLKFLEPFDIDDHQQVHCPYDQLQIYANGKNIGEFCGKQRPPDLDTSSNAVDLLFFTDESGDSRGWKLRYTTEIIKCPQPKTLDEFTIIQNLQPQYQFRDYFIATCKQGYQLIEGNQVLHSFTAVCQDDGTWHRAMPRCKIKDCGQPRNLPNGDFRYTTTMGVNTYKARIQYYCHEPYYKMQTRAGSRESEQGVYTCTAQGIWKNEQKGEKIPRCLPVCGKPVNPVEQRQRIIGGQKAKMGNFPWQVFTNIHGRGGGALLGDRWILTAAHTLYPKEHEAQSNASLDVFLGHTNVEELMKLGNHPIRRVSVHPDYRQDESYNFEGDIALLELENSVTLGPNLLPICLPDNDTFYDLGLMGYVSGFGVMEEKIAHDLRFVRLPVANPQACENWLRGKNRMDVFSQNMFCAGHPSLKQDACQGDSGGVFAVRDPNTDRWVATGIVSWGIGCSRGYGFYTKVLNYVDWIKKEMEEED
# C1, sequence (P09871 16-688 partner): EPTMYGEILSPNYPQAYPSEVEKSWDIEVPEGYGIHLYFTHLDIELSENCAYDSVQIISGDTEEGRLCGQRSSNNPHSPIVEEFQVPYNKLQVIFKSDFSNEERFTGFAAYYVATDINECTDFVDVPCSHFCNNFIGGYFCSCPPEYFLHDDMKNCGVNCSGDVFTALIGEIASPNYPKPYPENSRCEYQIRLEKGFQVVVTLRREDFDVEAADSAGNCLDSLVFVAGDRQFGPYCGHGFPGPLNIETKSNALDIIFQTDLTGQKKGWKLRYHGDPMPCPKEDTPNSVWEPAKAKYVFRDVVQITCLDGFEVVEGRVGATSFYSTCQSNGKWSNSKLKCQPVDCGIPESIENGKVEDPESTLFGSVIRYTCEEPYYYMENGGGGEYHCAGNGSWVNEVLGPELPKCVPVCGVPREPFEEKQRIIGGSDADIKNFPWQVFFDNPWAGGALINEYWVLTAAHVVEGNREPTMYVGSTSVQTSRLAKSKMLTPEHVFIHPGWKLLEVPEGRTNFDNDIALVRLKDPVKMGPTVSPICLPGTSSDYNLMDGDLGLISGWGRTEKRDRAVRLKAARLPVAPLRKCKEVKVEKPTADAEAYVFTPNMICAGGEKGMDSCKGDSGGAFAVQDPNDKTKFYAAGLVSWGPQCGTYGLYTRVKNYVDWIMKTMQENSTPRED
substance,measurement,setting,value
Asp-Ser-Asp-Pro-Arg (DSDPR; printed: Asp-Ser-Asp-Pro-Arg),inhibition of local cutaneous allergic reaction (Prausnitz-Kustner),[1],approximately 90%
same,block of human IgE binding to basophil IgE Fc receptors,[2],up to 70%
same,effect on systemic allergic disease in humans,[3],inhibit systemic allergic disease
Gly-Gln-Pro-Arg (GQPR; printed: Gly-Gln-Pro-Arg) [Rigin],stimulation of phagocytosis,[4],phagocytosis-stimulating abilities similar to those of Tuftsin
PRKTKGSGFFVF,degranulation of mast cells,[5],able to cause degranulation
VFSRLEVTRAE,binding of 125I-human IgG to mouse macrophages,[6],marked enhancement
Thr-Lys-Pro-Arg (TKPR; printed: Thr-Lys-Pro-Arg) [Tuftsin],inhibition of C1-mediated hemolysis,[7],less active
same,stimulation of phagocytosis,[4],active at nanomolar concentrations
same,blocking of human IgG binding to human monocyte IgG Fc receptors,[8],competitively inhibits
TISKAKGQPREPQVYTLPSREEM,nonspecific activation of lymphocytes,[9],"induce polyclonal B cell proliferation, antigen-specific antibody responses and Natural Killer (NK) cell-mediated lysis"
QYDSTYR,blocking of human IgG binding to human monocyte IgG Fc receptors,[8],could slightly block
Val-Gln-Val-His-Asn-Ala-Lys-Thr-Lys-Pro-Arg-OH (VQVHNAKTKPR-OH),inhibition of C1-mediated hemolysis,[7],approximately as active as inhibitors as intact monomeric IgG
